# In patent US11136325B2, “Pyrrolopyrimidine and pyrrolopyridine derivatives” (GALAPAGOS NV, priority 2017, dated 2021):
# System: CFA induced hypersensitivity in rat
# Test: CFA induced hypersensitivity in rat assessed using weight bearing method
# Assay type: in vivo
# Conditions: 10 mg/kg, 24 hours post CFA, 1, 2 and 4 hours post treatment
# Text: Intraplantar injection of Complete Freunds adjuvant (CFA) causes an inflammatory reaction which induces hypersensitivity and oedema, and mimics some aspects of clinical inflammatory pain. These effects can be investigated using equipment to measure weight bearing and plethysmometer.
# Naive rats distribute their body weight equally between the two hind paws. However, when the injected (left) hind paw is inflamed and/or painful, the weight is re-distributed so that less weight is put on the affected paw (decrease in weight bearing on injured paw). Weight bearing through each hind limb was measured using a rat incapacitance tester (Linton Instruments, UK).
# Rats were placed in the incapacitance tester with the hind paws on separate sensors and the average force exerted by both hind limbs was recorded over 4 seconds.
# Base line weight bearing and paw volume readings were taken and hypersensitivity was induced via injection of CFA (Baseline weight bearing and paw volume recordings were taken prior to induction of insult. Inflammatory hypersensitivity was induced by intraplantar injection of CFA (100 μL of 1 mg/mL solution) intraplantar to the rats left hind paw.
# Animals (Male, Sprague Dawley Rats (Charles River, UK), 212-260 g) were ranked and randomised to treatment groups according to the weight bearing CFA window in a Latin square design. […]
structure (smiles),measurement,value
"COc1ccc2c(c1)c(CC(=O)O)c(C)n2C(=O)c1ccc(Cl)cc1 [Indomethacin, reference compound]",hypersensitivity response (weight bearing),significantly inhibited
